According to patent publication US12378231B2, “Small molecules as monoacylglycerol lipase (MAGL) inhibitors, compositions and use thereof” (APOGEE PHARMACEUTICALS, INC., priority 2023, dated 2025):

Tests used:
[1] = molecular target: human recombinant FAAH (Homo sapiens (Human), UniProt O00519); assay: In vitro inhibition of human recombinant FAAH activity (Cayman FAAH inhibitor screening kit, AMC arachidonoyl amide hydrolysis); assay type: biochemical
From the text: In brief, FAAH hydrolyzes AMC arachidonoyl amide resulting in the release of the fluorescent product, while the inhibitor will inhibit the FAAH activity and thus reduce the fluorescent signal.

[2] = molecular target: human recombinant MAGL (Homo sapiens (Human), UniProt Q99685); assay: In vitro inhibition of human recombinant MAGL activity (Cayman inhibitor screening kit, 4-nitrophenylacetate hydrolysis); assay type: biochemical; settings: human recombinant MAGL; read-out: Inhibition on MAGL activity (IC50)
human recombinant MAGL, sequence (Q99685 whole entry): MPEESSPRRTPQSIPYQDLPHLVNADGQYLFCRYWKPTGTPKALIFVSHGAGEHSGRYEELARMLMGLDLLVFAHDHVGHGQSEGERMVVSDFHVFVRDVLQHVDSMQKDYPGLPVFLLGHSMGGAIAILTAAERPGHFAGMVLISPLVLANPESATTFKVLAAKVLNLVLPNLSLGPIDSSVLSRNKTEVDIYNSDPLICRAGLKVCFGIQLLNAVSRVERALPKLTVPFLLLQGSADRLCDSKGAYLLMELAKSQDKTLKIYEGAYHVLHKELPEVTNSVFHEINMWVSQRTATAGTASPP
From the text: The inhibitory effect of the synthetic chemicals on activity of human recombinant MAGL was studied using commercial inhibitor screening kit (Cayman Chemical). […] The absorbance of the yellow product can be analyzed using the plate reader. […]

human recombinant FAAH, sequence (O00519 whole entry): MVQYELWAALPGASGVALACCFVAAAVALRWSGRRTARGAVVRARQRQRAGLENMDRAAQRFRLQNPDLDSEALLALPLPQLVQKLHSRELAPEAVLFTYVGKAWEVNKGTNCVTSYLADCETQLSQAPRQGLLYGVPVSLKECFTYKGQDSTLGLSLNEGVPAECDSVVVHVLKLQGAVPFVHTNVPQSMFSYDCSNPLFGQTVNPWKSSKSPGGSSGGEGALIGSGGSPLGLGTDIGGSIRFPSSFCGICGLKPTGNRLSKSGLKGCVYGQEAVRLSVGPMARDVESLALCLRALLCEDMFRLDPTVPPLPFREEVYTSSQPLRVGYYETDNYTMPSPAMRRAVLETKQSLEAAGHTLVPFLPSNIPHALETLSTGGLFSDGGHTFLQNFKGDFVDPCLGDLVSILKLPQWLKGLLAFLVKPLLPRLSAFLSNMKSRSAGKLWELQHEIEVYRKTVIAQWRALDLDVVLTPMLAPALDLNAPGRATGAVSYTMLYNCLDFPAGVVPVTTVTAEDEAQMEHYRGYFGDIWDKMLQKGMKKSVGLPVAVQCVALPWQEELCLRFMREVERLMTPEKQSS

| SMILES | IC50 [1] | IC50 [2] |
| --- | --- | --- |
| N#Cc1ncn(C(=O)N2CCN(C(c3ccc4c(c3)COCO4)c3ccc4c(c3)COCO4)CC2)n1 [Example 36, 1-(4-(bis(4H-benzo[d][1,3]dioxin-6-yl)methyl)piperazine-1-carbonyl)-1H-1,2,4-triazole-3-carbonitrile] | > 10000 nM | 10 to 100 nM |
| O=C(N1CCN(C(c2ccc3c(c2)COCO3)c2ccc3c(c2)COCO3)CC1)n1nnc2cc(F)ccc21 [Example 40, (4-(bis(4H-benzo[d][1,3]dioxin-6-yl)methyl)piperazin-1-yl)(5-fluoro-1H-benzo[d][1,2,3]triazol-1-yl)methanone] | 1000 to 20000 nM | 10 to 100 nM |
| O=C(Nc1cccnc1)N1CCN(C(c2ccc3c(c2)COCO3)c2ccc3c(c2)COCO3)CC1 [Example 43, 4-(bis(4H-benzo[d][1,3]dioxin-6-yl)methyl)-N-(pyridin-3-yl)piperazine-1-carboxamide] | > 50000 nM | > 100 nM |
| O=C(N1CCN(C(c2ccc3c(c2)COCO3)c2ccc3c(c2)COCO3)CC1)n1nnc2ccc(C(F)(F)F)cc21 [Example 44, (4-(bis(4H-benzo[d][1,3]dioxin-6-yl)methyl)piperazin-1-yl)(6-(trifluoromethyl)-1H-benzo[d][1,2,3]triazol-1-yl)methanone] | > 10000 nM | 1 to 10 nM |
| O=C(N1CCN(C(c2ccc3c(c2)COCO3)c2ccc3c(c2)COCO3)CC1)n1nnc2cc3c(cc21)OCCO3 [Example 46, (4-(bis(4H-benzo[d][1,3]dioxin-6-yl)methyl)piperazin-1-yl)(6,7-dihydro-1H-[1,4]dioxino[2′,3′:4,5]benzo[1,2-d][1,2,3]triazol-1-yl)methanone] | > 10000 nM | 10 to 100 nM |
| N#Cc1ccc2nnn(C(=O)N3CCN(C(c4ccc5c(c4)COCO5)c4ccc5c(c4)COCO5)CC3)c2c1 [Example 48, 1-(4-(bis(4H-benzo[d][1,3]dioxin-6-yl)methyl)piperazine-1-carbonyl)-1H-benzo[d][1,2,3]triazole-6-carbonitrile] | > 20000 nM | 1 to 10 nM |
| N#Cc1ccc2c(c1)nnn2C(=O)N1CCN(C(c2ccc3c(c2)COCO3)c2ccc3c(c2)COCO3)CC1 [Example 49, 1-(4-(bis(4H-benzo[d][1,3]dioxin-6-yl)methyl)piperazine-1-carbonyl)-1H-benzo[d][1,2,3]triazole-5-carbonitrile] | > 20000 nM | 10 to 100 nM |
| O=C(N1CCN(C(c2ccc3c(c2)COCO3)c2ccc3c(c2)COCO3)CC1)n1nc2ccccn2c1=O [Example 50, 2-(4-(bis(4H-benzo[d][1,3]dioxin-6-yl)methyl)piperazine-1-carbonyl)-[1,2,4]triazolo[4,3-a]pyridin-3(2H)-one] | > 50000 nM | > 100 nM |
| N#Cc1ccc2nnn(C(=O)N3CCCN(C(c4ccc5c(c4)COCO5)c4ccc5c(c4)COCO5)CC3)c2c1 [Example 51, 1-(4-(bis(4H-benzo[d][1,3]dioxin-6-yl)methyl)-1,4-diazepane-1-carbonyl)-1H-benzo[d][1,2,3]triazole-6-carbonitrile] | > 10000 nM | 10 to 100 nM |
| O=C(OC(C(F)(F)F)C(F)(F)F)C1CCN(C(c2ccc3c(c2)COCO3)c2ccc3c(c2)COCO3)CC1 [Example 53, 1,1,1,3,3,3-hexafluoropropan-2-yl 1-(bis(4H-benzo[d][1,3]dioxin-6-yl)methyl)piperidine-4-carboxylate] | > 50000 nM | > 100 nM |
| N#Cc1ccc2nnn(C(=O)N3CCC(OC(c4ccc5c(c4)COCO5)c4ccc5c(c4)COCO5)CC3)c2c1 [Example 56, 1-(4-(bis(4H-benzo[d][1,3]dioxin-6-yl)methoxy)piperidine-1-carbonyl)-1H-benzo[d][1,2,3]triazole-6-carbonitrile] | > 10000 nM | 1 to 10 nM |
| N#Cc1ccc2nnn(C(=O)N3CCC(N(c4ccc(F)cc4)c4ccc(F)cc4)CC3)c2c1 [Example 61, 1-(4-(bis(4-fluorophenyl)amino)piperidine-1-carbonyl)-1H-benzo[d][1,2,3]triazole-6-carbonitrile] | 100 to 1000 nM | 1 to 10 nM |
| COc1ccc(N(c2ccc(F)cc2)C2CCN(C(=O)n3nnc4ccc(C#N)cc43)CC2)cc1 [Example 65, 1-(4-((4-fluorophenyl)(4-methoxyphenyl)amino)piperidine-1-carbonyl)-1H-benzo[d][1,2,3]triazole-6-carbonitrile] | 100 to 1000 nM | 1 to 10 nM |
| N#Cc1ccc2nnn(C(=O)N3CCC(N(c4ccc5c(c4)OCO5)c4ccc5c(c4)OCO5)CC3)c2c1 [Example 67, 1-(4-(bis(benzo[d][1,3]dioxol-5-yl)amino)piperidine-1-carbonyl)-1H-benzo[d][1,2,3]triazole-6-carbonitrile] | 100 to 1000 nM | 1 to 10 nM |
| N#Cc1ccc2c(c1)nnn2C(=O)N1CCC(N(c2ccc3c(c2)OCO3)c2ccc3c(c2)OCO3)CC1 [Example 68, 1-(4-(bis(benzo[d][1,3]dioxol-5-yl)amino)piperidine-1-carbonyl)-1H-benzo[d][1,2,3]triazole-5-carbonitrile] | 100 to 1000 nM | 1 to 10 nM |

Other lines, results leading:

| IC50 [1] | IC50 [2] | SMILES |
| --- | --- | --- |
| > 50000 nM | 1 to 10 nM | O=C(N1CCN(C(c2ccc3c(c2)COCO3)c2ccc3c(c2)COCO3)CC1)n1nnc2ccc(Br)cc21 [Example 37, (4-(bis(4H-benzo[d][1,3]dioxin-6-yl)methyl)piperazin-1-yl)(6-bromo-1H-benzo[d][1,2,3]triazol-1-yl)methanone] |
| > 50000 nM | 10 to 100 nM | O=C(N1CCN(C(c2ccc3c(c2)COCO3)c2ccc3c(c2)COCO3)CC1)n1nnc2cc(Br)ccc21 [Example 38, (4-(bis(4H-benzo[d][1,3]dioxin-6-yl)methyl)piperazin-1-yl)(5-bromo-1H-benzo[d][1,2,3]triazol-1-yl)methanone] |
| ~50000 nM | 1 to 10 nM | O=C(N1CCN(C(c2ccc3c(c2)COCO3)c2ccc3c(c2)COCO3)CC1)n1nnc2ccc(F)cc21 [Example 39, (4-(bis(4H-benzo[d][1,3]dioxin-6-yl)methyl)piperazin-1-yl)(6-fluoro-1H-benzo[d][1,2,3]triazol-1-yl)methanone] |
| > 20000 nM | 1 to 10 nM | O=C(N1CCN(C(c2ccc3c(c2)COCO3)c2ccc3c(c2)COCO3)CC1)n1nnc2c(Cl)cc(C(F)(F)F)cc21 [Example 42, (4-(bis(4H-benzo[d][1,3]dioxin-6-yl)methyl)piperazin-1-yl)(4-chloro-6-(trifluoromethyl)-1H-benzo[d][1,2,3]triazol-1-yl)methanone] |
| > 1000 nM | 10 to 100 nM | O=C(N1CCN(C(c2ccc3c(c2)COCO3)c2ccc3c(c2)COCO3)CC1)n1nnc2cc(C(F)(F)F)ccc21 [Example 45, (4-(bis(4H-benzo[d][1,3]dioxin-6-yl)methyl)piperazin-1-yl)(5-(trifluoromethyl)-1H-benzo[d][1,2,3]triazol-1-yl)methanone] |
| > 50000 nM | > 100 nM | O=C(C1CCN(C(c2ccc3c(c2)COCO3)c2ccc3c(c2)COCO3)CC1)n1nnc2ccccc21 [Example 52, (1H-benzo[d][1,2,3]triazol-1-yl)(1-(bis(4H-benzo[d][1,3]dioxin-6-yl)methyl)piperidin-4-yl)methanone] |
| > 50000 nM | > 100 nM | O=C(Oc1c(F)c(F)c(F)c(F)c1F)C1CCN(C(c2ccc3c(c2)COCO3)c2ccc3c(c2)COCO3)CC1 [Example 54, pentafluorophenyl 1-(bis(4H-benzo[d][1,3]dioxin-6-yl)methyl)piperidine-4-carboxylate] |
| 1000 to 10000 nM | 1 to 10 nM | CN(CCOC(c1ccc2c(c1)COCO2)c1ccc2c(c1)COCO2)C(=O)n1nnc2ccc(C#N)cc21 [Example 55, N-(2-(bis(4H-benzo[d][1,3]dioxin-6-yl)methoxy)ethyl)-6-cyano-N-methyl-1H-benzo[d][1,2,3]triazole-1-carboxamide] |
| 100 to 1000 nM | 1 to 10 nM | N#Cc1ccc2c(c1)nnn2C(=O)N1CCC(OC(c2ccc3c(c2)COCO3)c2ccc3c(c2)COCO3)CC1 [Example 57, 1-(4-(bis(4H-benzo[d][1,3]dioxin-6-yl)methoxy)piperidine-1-carbonyl)-1H-benzo[d][1,2,3]triazole-5-carbonitrile] |
| ~10000 nM | 10 to 100 nM | N#Cc1ccc2nnn(C(=O)N3CC4(CC(OC(c5ccc6c(c5)COCO6)c5ccc6c(c5)COCO6)C4)C3)c2c1 [Example 59, 1-(6-(bis(4H-benzo[d][1,3]dioxin-6-yl)methoxy)-2-azaspiro[3.3]heptane-2-carbonyl)-1H-benzo[d][1,2,3]triazole-6-carbonitrile] |
| < 10000 nM | 10 to 100 nM | N#Cc1ccc2c(c1)nnn2C(=O)N1CC2(CC(OC(c3ccc4c(c3)COCO4)c3ccc4c(c3)COCO4)C2)C1 [Example 60, 1-(6-(bis(4H-benzo[d][1,3]dioxin-6-yl)methoxy)-2-azaspiro[3.3]heptane-2-carbonyl)-1H-benzo[d][1,2,3]triazole-5-carbonitrile] |
| 100 to 1000 nM | 1 to 10 nM | N#Cc1ccc2nnn(C(=O)N3CCC(N(c4ccc(F)cc4)c4ccc5c(c4)OCO5)CC3)c2c1 [Example 63, 1-(4-(benzo[d][1,3]dioxol-5-yl(4-fluorophenyl)amino)piperidine-1-carbonyl)-1H-benzo[d][1,2,3]triazole-6-carbonitrile] |
| 10 to 100 nM | 1 to 10 nM | N#Cc1ccc2c(c1)nnn2C(=O)N1CCC(N(c2ccc(F)cc2)c2ccc3c(c2)OCO3)CC1 [Example 64, 1-(4-(benzo[d][1,3]dioxol-5-yl(4-fluorophenyl)amino)piperidine-1-carbonyl)-1H-benzo[d][1,2,3]triazole-5-carbonitrile] |
| 100 to 1000 nM | 1 to 10 nM | COc1ccc(N(c2ccc(F)cc2)C2CCN(C(=O)n3nnc4cc(C#N)ccc43)CC2)cc1 [Example 66, 1-(4-((4-fluorophenyl)(4-methoxyphenyl)amino)piperidine-1-carbonyl)-1H-benzo[d][1,2,3]triazole-5-carbonitrile] |
